Where a name gives a salt, the structure may show the parent alone. One block for each compound: values may come before it. Calls of active or inactive are those of the source.
Legend:
[1] = target: T1, Low molecular weight phosphotyrosine protein phosphatase (Homo sapiens, UniProt P24666); assay type: functional; conditions: read-out: IC50_Mean
T1 sequence (P24666 whole entry): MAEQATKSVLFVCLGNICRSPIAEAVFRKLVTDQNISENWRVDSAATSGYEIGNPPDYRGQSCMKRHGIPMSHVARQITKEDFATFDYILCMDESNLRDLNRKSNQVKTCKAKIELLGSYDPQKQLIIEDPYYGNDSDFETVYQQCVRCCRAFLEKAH

[2] = DNA binding of candidate compounds, dose response, artefact control for RAD54 inhibitor project, biochemical, fluorescence polarization, cherry-pick (AID 651673); assay type: functional
[3] = target: T1, Low molecular weight phosphotyrosine protein phosphatase; assay type: functional; conditions: read-out: IC50_Mean; remark: listed apart in the source
[4] = target: T2, DNA repair and recombination protein RAD54-like (Homo sapiens, UniProt Q92698); experiment: inhibitors of human RAD54 branch migration, confirmation, biochemical, fluorescence, cherry-picked samples, dose series (AID 651657); assay type: functional
T2 sequence (Q92698 whole entry): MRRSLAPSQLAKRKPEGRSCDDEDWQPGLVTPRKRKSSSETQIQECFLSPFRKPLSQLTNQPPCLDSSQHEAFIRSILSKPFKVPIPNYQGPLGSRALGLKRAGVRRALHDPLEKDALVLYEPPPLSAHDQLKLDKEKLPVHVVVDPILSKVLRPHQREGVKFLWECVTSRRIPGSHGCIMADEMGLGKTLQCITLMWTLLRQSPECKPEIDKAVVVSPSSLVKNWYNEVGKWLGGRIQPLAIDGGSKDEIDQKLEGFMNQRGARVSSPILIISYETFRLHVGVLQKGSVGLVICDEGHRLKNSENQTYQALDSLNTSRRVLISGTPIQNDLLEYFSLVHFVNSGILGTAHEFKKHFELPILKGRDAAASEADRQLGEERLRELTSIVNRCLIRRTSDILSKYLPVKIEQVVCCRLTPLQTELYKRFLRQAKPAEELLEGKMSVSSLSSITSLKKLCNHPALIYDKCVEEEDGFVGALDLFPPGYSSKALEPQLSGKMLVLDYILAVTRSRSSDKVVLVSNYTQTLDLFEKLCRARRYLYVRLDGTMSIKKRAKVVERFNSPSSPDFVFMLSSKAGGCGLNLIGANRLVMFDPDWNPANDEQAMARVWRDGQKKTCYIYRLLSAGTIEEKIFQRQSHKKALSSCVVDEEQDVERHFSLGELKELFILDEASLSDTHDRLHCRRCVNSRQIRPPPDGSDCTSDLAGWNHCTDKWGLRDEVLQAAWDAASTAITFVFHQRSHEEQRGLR

[5] = target: SWI/SNF-related matrix-associated actin-dependent regulator of chromatin subfamily A member 2 (Homo sapiens, UniProt P51531); experiment: Luminescence-based cell-based high throughput dose response assay to identify activators of the function of SWI/SNF related, matrix associated, actin dependent regulator of chromatin, subfamily a, member 2 (SMARCA2, BRM).; assay type: functional
[6] = Counterscreen for activators of the function of SWI/SNF related, matrix associated, actin dependent regulator of chromatin, subfamily a, member 2 (SMARCA2, BRM): Luminescence-based cell-based high throughput dose response assay to identify non-selective compounds using the VP16 reporter assay.; assay type: functional
[7] = target: T3, DNA repair protein RAD52 homolog (Homo sapiens, UniProt P43351); assay type: functional, biochemical
T3 sequence (P43351 whole entry): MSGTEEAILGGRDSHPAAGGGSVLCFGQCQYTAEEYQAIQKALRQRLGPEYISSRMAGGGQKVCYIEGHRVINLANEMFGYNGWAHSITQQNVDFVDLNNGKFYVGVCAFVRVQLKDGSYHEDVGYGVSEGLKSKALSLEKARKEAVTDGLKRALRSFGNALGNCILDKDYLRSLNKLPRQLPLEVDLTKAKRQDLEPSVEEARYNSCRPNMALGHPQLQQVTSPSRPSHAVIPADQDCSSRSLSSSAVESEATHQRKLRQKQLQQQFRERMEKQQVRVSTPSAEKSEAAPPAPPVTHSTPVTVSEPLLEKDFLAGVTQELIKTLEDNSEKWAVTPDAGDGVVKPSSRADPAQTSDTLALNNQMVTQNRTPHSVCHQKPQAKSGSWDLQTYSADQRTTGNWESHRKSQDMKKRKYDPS

[8] = target: T1, Low molecular weight phosphotyrosine protein phosphatase; experiment: LMPTP phosphatase inhibitors, dose response, biochemical, OMFP substrate, fluorescence intensity, set 2 (AID 743307); assay type: functional
[9] = target: T1, Low molecular weight phosphotyrosine protein phosphatase; experiment: LMPTP phosphatase inhibitors, colorimetric pNPP readout, dose response, orthogonal assay, biochemical, absorbance, pNPP substrate, LMPTP-A isoform, set 2 (AID 743308); assay type: functional
[10] = target: Paired box protein Pax-8 (Homo sapiens, UniProt Q06710); experiment: inhibitors of PAX8-driven TPO luciferase reporter, dose response, RMG-I cells, cherry-pick (AID 687027); assay type: functional, cell-based;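 further: luciferase reporter driven by Pax8 target thyroperoxidase promoter measured by SteadyGlo luminescence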
[11] = IGROV1 ovarian cancer cell cytotoxicity, dose response, PAX8 inhibitor project, plate reader, dry powder samples (AID 743043); assay type: functional, cell-based; conditions: IGROV-1
[12] = P. falciparum Dd2 growth inhibitors, dose response, SYBR Green, dry powder samples, set 9 (AID 1159568); assay type: functional, cell-based
[13] = half-maximal inhibitory concentration for glucagon-like peptide-1 release, STC-1 cell line, dose-response (AID 1117345); assay type: functional, cell-based
[14] = Glucagon-like peptide 1 release potency, NCI-H716 cell line, dose-response, half-maximal inhibitory concentration (AID 1117344); assay type: functional, cell-based
[15] = target: Metabotropic glutamate receptor 7 (Homo sapiens, UniProt Q14831); experiment: mGlu7 positive allosteric modulators, dose response, cell-based, calcium mobilization, Galpha15 (AID 743384); assay type: functional
[16] = HeLa 2N DNA content increase, dose response, cell-based, IC50 (AID 1117349); assay type: functional
[17] = Concentration-dependent survival of SW480 colon cancer line, luminescence detection with CellTiter-Glo, half-maximal inhibitory concentration (AID 1117338); assay type: functional
[18] = RKO cell viability reduction, dose response, CellTiter-Glo luminescence (AID 1117322); assay type: functional
[19] = cytotoxicity toward HCT116 cells – cell-based, CellTiter-Glo luminescence, IC50, dose response (AID 1117332); assay type: functional; conditions: HCT-116
[20] = SNU-C1 cell viability reduction, dose response, CellTiter-Glo luminescence (AID 1117323); assay type: functional, cell-based
[21] = cytotoxicity toward Colo320 cells – cell-based, CellTiter-Glo luminescence, IC50, dose response (AID 1117334); assay type: functional; conditions: COLO 320
[22] = HeLa 4N DNA content increase, dose response, cell-based, IC50 (AID 1117351); assay type: functional
[23] = cytotoxicity toward HT-29 cells – cell-based, CellTiter-Glo luminescence, IC50, dose response (AID 1117330); assay type: functional
[24] = CellTiter-Glo luminescent dose response of DLD-1 viability loss (AID 1117352); assay type: functional
[25] = HCT116 cell viability decrease, GSK3B pretreatment – CellTiter-Glo, IC50, dose response (AID 1117339); assay type: functional; conditions: HCT-116
[26] = Dose-response inhibition of insulin secretion in a rat insulinoma line at 5 mM glucose (AID 1117331); assay type: functional, cell-based; conditions: INS-1E
[27] = cells; assay type: functional, cell-based; conditions: INS-1E

Sequence of Paired box protein Pax-8 (Q06710 whole entry): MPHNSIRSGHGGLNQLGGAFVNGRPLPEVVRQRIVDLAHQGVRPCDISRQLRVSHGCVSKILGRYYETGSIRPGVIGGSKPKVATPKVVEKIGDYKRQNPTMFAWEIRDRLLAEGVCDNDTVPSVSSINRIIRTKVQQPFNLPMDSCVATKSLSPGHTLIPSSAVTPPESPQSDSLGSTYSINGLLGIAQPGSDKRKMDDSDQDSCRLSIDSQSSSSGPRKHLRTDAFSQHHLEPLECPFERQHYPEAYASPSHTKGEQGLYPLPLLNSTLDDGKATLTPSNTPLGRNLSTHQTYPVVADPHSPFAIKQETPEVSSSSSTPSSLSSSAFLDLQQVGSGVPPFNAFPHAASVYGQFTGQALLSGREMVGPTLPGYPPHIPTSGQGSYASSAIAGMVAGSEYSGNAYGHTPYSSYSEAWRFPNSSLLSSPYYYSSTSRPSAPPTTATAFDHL
Sequence of Metabotropic glutamate receptor 7 (Q14831 whole entry): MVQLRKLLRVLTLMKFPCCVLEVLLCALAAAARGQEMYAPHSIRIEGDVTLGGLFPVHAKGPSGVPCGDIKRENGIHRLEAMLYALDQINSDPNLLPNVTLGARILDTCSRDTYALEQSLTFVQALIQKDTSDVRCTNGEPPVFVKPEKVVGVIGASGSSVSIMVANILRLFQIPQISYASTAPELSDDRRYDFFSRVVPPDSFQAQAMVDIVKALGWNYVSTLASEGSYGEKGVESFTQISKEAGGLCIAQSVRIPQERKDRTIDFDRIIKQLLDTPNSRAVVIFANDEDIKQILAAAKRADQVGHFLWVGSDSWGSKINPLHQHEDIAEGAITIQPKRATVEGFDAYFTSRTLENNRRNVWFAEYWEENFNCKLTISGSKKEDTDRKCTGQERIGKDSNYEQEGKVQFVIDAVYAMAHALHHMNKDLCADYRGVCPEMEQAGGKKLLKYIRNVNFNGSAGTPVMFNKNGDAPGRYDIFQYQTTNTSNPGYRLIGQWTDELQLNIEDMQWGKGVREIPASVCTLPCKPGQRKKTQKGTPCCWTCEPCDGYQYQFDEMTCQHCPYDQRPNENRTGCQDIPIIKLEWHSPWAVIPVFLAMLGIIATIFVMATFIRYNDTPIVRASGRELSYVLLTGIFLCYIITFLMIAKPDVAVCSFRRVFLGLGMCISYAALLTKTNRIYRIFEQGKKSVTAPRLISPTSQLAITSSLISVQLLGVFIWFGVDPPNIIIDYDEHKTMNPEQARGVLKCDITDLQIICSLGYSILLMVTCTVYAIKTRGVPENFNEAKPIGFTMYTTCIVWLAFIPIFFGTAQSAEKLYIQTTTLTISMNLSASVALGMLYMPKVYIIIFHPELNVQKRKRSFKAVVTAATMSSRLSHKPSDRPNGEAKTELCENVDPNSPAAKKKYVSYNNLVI
Sequence of SWI/SNF-related matrix-associated actin-dependent regulator of chromatin subfamily A member 2 (P51531 whole entry): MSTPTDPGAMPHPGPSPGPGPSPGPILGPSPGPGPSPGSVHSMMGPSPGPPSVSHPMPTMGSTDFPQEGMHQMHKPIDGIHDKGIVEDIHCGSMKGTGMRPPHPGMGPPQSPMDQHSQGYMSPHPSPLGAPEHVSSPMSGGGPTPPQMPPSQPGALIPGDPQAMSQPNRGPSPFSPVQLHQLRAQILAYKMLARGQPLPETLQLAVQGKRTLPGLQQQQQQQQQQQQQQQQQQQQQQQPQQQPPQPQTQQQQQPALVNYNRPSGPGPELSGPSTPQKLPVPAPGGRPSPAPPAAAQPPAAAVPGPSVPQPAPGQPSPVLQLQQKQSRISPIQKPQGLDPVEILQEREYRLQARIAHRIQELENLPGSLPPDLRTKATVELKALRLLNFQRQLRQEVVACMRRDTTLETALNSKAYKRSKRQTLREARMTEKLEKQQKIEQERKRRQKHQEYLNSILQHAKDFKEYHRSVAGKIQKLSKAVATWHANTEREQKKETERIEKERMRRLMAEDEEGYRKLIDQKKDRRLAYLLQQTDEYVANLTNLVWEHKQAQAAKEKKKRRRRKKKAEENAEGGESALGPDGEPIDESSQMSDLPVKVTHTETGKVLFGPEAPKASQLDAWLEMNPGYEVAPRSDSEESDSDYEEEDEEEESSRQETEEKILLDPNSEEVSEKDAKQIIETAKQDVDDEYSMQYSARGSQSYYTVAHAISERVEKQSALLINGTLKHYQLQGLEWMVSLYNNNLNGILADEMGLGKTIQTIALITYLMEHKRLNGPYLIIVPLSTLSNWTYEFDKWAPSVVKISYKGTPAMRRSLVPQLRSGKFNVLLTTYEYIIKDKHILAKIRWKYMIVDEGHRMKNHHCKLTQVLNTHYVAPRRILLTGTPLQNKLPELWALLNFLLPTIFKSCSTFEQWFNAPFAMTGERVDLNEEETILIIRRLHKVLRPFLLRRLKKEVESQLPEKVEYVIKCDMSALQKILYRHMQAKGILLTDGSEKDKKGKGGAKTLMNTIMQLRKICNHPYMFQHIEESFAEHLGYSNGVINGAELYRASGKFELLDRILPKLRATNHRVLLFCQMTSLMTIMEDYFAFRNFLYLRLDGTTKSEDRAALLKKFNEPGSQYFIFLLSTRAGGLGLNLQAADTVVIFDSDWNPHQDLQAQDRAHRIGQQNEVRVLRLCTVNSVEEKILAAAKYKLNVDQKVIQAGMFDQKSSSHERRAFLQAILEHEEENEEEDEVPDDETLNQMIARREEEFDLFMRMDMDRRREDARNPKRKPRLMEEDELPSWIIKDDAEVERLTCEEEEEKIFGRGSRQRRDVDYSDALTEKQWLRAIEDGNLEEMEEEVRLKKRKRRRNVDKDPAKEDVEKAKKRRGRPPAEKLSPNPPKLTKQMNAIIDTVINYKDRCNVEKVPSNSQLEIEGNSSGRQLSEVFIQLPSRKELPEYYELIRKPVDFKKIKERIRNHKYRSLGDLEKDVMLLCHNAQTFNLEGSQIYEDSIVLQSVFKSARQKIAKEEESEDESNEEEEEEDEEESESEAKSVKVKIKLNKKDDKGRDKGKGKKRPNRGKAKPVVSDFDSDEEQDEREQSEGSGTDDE

Structure (SMILES): c1ccc(-c2cc(NCCN3CCCCC3)c3ccccc3n2)cc1
- IC50 [1]: 5.8 µM (active)
- AC50 [2]: 58.8 µM (active)
- IC50 [3]: 3.49 µM (active)
- AC50 [4]: 4.86 µM (active)
- EC50 [5]: 10.9 µM (inactive)
- EC50 [6]: > 91.2 µM (inactive)
- AC50 [7]: < 3.63 µM (active)
- IC50 [8]: 3.7 µM (active)
- IC50 [9]: 8.37 µM (active)

Structure (SMILES): C[C@@H]1CN([C@@H](C)CO)C(=O)Cc2cc(NC(=O)C3CCCCC3)ccc2O[C@H]1CN(C)Cc1ccc(Cl)c(Cl)c1
- AC50 [10]: 5.39 µM (active)
- AC50 [11]: 28.6 µM (active)
- AC50 [12]: 2.76 µM (active)

Structure (SMILES): Cc1cc(OCCOCC[N+](C)(C)Cc2ccccc2)ccc1C(C)(C)CC(C)(C)C
- IC50 [13]: > 40 µM (inactive)
- IC50 [14]: 12 µM (inactive)

- EC50 [15]: 10 µM (active)
Structure (SMILES): CC(=O)Nc1ccc(SCC(=O)c2cc(C)n(-c3nc(C)cs3)c2C)cc1

Structure (SMILES): CCCCC(CC)CNC(=N)NC(=N)NCCCCCCNC(=N)NC(=N)NCC(CC)CCCC (configuration not stated) [ALEXIDINE DIHYDROCHLORIDE]
- IC50 [16]: > 10 µM (inactive)
- IC50 [17]: 0.333 µM (active)
- IC50 [18]: 0.223 µM (active)
- IC50 [19]: 0.71 µM (active)
- IC50 [20]: 0.0941 µM (active)
- IC50 [21]: 0.0041 µM (active)
- IC50 [22]: > 10 µM (inactive)
- IC50 [23]: 0.0302 µM (active)
- IC50 [24]: 0.0197 µM (active)
- IC50 [25]: 0.396 µM (active)

Structure (SMILES): CC(C)[C@H]1CC[C@H](C(=O)N[C@H](Cc2ccccc2)C(=O)O)CC1 [NATEGLINIDE]
- IC50 [26]: 7.07 µM (inactive)
- IC50 [27]: > 33.3 µM (inactive)
